Experimental data reported in ChEMBL document CHEMBL1909046, “DrugMatrix in vitro pharmacology data”.

What was measured:
[1] = target: Prostaglandin G/H synthase 1 (Homo sapiens, UniProt P23219); test: biochemical; type: tissue-based, Platelet; settings: platelet;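 also: inhibition of COX-1 enzyme activity, with arachidonic acid supplied as substrate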
Thromboxane-A synthase = target: T1, Thromboxane-A synthase (Homo sapiens, UniProt P24557); test: biochemical; type: tissue-based, Platelet; settings: platelet;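 also: enzyme inhibition assay with PGH2 supplied as substrate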
T1 sequence (P24557 whole entry): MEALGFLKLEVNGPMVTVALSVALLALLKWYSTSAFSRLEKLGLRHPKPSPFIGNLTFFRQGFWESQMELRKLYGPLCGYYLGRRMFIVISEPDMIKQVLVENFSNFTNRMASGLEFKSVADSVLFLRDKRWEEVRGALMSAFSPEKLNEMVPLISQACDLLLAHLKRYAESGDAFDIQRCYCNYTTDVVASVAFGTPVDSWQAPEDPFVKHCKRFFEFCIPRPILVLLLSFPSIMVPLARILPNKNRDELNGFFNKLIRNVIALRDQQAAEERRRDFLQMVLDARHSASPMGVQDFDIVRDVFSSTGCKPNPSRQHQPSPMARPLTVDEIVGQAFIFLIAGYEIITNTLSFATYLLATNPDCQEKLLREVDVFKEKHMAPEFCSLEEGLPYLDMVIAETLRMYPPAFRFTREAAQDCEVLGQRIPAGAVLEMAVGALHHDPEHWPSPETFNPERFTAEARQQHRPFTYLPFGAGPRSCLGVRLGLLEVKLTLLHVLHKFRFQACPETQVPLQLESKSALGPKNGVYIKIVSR

[2] = target: Protein phosphatase 3 catalytic subunit alpha (Homo sapiens, UniProt Q08209); set-up: species or system Escherichia coli;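 also: inhibition of calcineurin (PP2B) enzyme activity, measured with DiFMUP as the substrate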
[3] = target: 5-hydroxytryptamine receptor 1B (Rattus norvegicus, UniProt P28564); type: cell membranes, Wistar, Cerebral cortex, Membrane
[4] = target: T2, Neuropeptide Y receptor type 2 (Homo sapiens, UniProt P49146); type: cell membranes, KAN-TS, Membrane; settings: kan-ts
T2 sequence (P49146 whole entry): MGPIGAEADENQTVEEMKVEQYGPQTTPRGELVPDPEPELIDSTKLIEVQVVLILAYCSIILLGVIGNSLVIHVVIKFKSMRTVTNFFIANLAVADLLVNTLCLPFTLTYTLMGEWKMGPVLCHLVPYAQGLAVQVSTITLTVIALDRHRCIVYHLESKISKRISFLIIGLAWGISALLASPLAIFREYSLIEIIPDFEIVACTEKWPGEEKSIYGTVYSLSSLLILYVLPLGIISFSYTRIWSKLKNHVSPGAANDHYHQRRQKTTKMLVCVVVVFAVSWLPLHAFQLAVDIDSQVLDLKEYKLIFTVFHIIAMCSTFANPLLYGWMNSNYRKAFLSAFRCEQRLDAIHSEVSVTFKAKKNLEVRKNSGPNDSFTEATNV

Cathepsin G = target: T3, Cathepsin G (Homo sapiens, UniProt P08311); type: tissue-based; settings: neutrophil;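 also: inhibition of Cathepsin G enzyme activity, tested on an AMC-conjugated peptide substrate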
T3 sequence (P08311 whole entry): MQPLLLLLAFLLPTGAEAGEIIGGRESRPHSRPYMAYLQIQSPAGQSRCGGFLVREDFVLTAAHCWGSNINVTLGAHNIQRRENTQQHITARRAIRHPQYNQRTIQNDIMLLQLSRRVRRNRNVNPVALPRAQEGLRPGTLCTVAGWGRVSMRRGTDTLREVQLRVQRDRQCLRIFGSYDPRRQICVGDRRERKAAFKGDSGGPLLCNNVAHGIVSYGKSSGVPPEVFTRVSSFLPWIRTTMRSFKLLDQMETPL

Glycine receptor = Glycine receptor (Rattus norvegicus, UniProt P22771+P24524+P07727+P20781); type: cell membranes, Wistar, Spinal cord, Membrane
Also: in other assays of this panel Not Active means under 50% inhibition at 10 µM.

Sequence of 5-hydroxytryptamine receptor 1B (P28564 whole entry): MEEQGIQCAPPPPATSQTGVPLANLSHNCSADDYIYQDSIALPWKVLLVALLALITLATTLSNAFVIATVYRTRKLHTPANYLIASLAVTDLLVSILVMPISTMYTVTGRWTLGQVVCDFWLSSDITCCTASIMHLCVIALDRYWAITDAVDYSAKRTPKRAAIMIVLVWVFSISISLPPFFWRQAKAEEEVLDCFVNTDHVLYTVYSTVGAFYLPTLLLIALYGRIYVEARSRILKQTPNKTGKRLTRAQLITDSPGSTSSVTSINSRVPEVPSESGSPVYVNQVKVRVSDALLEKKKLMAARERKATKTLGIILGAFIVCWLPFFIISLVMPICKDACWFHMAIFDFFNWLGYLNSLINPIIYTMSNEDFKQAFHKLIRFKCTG
Sequence of Prostaglandin G/H synthase 1 (P23219 whole entry): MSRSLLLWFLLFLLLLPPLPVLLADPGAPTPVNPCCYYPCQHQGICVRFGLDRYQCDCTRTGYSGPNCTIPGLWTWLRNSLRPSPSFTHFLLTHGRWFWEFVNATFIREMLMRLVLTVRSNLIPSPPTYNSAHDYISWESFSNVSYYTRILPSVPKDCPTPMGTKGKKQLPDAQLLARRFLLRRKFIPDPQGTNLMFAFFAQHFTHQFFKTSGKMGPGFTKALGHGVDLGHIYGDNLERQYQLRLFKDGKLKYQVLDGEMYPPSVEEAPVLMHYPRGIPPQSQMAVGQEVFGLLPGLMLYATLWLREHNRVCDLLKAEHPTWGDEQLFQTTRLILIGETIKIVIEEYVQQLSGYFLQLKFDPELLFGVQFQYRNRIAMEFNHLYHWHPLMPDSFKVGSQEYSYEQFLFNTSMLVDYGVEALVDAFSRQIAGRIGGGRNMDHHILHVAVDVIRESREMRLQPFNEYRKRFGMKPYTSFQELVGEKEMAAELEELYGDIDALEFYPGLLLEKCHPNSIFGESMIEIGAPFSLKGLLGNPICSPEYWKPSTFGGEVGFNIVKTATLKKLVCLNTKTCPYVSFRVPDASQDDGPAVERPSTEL

COc1ccc(C2C(=O)c3ccccc3C2=O)cc1 [ANISINDIONE]
Not Active: IC50 [1] | IC50 (Thromboxane-A synthase) | IC50 [2] | IC50 [3] | IC50 [4] | IC50 (Cathepsin G) | IC50 (Glycine receptor)

CC[C@H](C)[C@H]1O[C@]2(C=C[C@@H]1C)C[C@@H]1C[C@@H](C/C=C(\C)[C@@H](O[C@H]3C[C@H](OC)[C@@H](O[C@H]4C[C@H](OC)[C@@H](O)[C@H](C)O4)[C@H](C)O3)[C@@H](C)/C=C/C=C3\CO[C@@H]4[C@H](O)C(C)=C[C@@H](C(=O)O1)[C@]34O)O2.CO[C@H]1C[C@H](O[C@H]2[C@H](C)O[C@@H](O[C@@H]3/C(C)=C/C[C@@H]4C[C@@H](C[C@]5(C=C[C@H](C)[C@@H](C(C)C)O5)O4)OC(=O)[C@@H]4C=C(C)[C@@H](O)[C@H]5OC/C(=C\C=C\[C@@H]3C)[C@]54O)C[C@@H]2OC)O[C@@H](C)[C@@H]1O [ABAMECTIN]
Not Active: IC50 [1] | IC50 (Thromboxane-A synthase) | IC50 [2] | IC50 [3] | IC50 [4] | IC50 (Cathepsin G)

CN/C(=N\CCSCc1nc[nH]c1C)NC#N [CIMETIDINE]
Not Active: IC50 [1] | IC50 (Thromboxane-A synthase) | IC50 [2] | IC50 [3] | IC50 [4] | IC50 (Cathepsin G) | IC50 (Glycine receptor)

NYSTATIN
Not Active: IC50 [1] | Ki [1] | IC50 (Thromboxane-A synthase) | Ki (Thromboxane-A synthase) | IC50 [2] | Ki [2] | IC50 [3] | Ki [3] | IC50 [4] | Ki [4] | IC50 (Cathepsin G) | Ki (Cathepsin G) | IC50 (Glycine receptor) | Ki (Glycine receptor)

CCCNCC(O)COc1ccccc1C(=O)CCc1ccccc1 (stereo not given) [PROPAFENONE]
Not Active: IC50 [1] | IC50 (Thromboxane-A synthase) | IC50 [2] | IC50 [3] | IC50 [4] | IC50 (Cathepsin G) | IC50 (Glycine receptor)

COC(=O)Nc1nc2ccc([S+]([O-])c3ccccc3)cc2[nH]1 (stereo not given) [OXFENDAZOLE]
Not Active: IC50 [1] | IC50 (Thromboxane-A synthase) | IC50 [2] | IC50 [3] | IC50 [4] | IC50 (Cathepsin G) | IC50 (Glycine receptor)

CCC1(C)CC(=O)NC1=O (stereo not given) [ETHOSUXIMIDE]
Not Active: IC50 [1] | IC50 (Thromboxane-A synthase) | IC50 [2] | IC50 [3] | IC50 [4] | IC50 (Cathepsin G) | IC50 (Glycine receptor)

Brc1c(NC2=NCCN2)ccc2nccnc12 [BRIMONIDINE]
Not Active: IC50 [1] | IC50 (Thromboxane-A synthase) | IC50 [2] | IC50 [3] | IC50 [4] | IC50 (Cathepsin G) | IC50 (Glycine receptor)

CC[C@H]1CN2CCc3cc(OC)c(OC)cc3[C@@H]2C[C@@H]1C[C@H]1NCCc2cc(OC)c(OC)cc21 [EMETINE]
Not Active: IC50 [1] | IC50 (Thromboxane-A synthase) | IC50 [2] | IC50 [3] | IC50 [4] | IC50 (Cathepsin G) | IC50 (Glycine receptor)

COc1cc([C@@H]2c3cc4c(cc3[C@@H](O[C@@H]3O[C@@H]5CO[C@@H](C)O[C@H]5[C@H](O)[C@H]3O)[C@H]3COC(=O)[C@H]23)OCO4)cc(OC)c1O [ETOPOSIDE]
Not Active: IC50 [1] | IC50 (Thromboxane-A synthase) | IC50 [2] | IC50 [3] | IC50 [4] | IC50 (Cathepsin G) | IC50 (Glycine receptor)

COC(=O)CCc1ccc(OCC(O)CNC(C)C)cc1 (stereo not given) [ESMOLOL]
Not Active: IC50 [1] | IC50 (Thromboxane-A synthase) | IC50 [2] | IC50 [3] | IC50 [4] | IC50 (Cathepsin G) | IC50 (Glycine receptor)

COc1ccc(C(=O)N2CCCC2=O)cc1
Not Active: IC50 [1] | IC50 (Thromboxane-A synthase) | IC50 [2] | IC50 [3] | IC50 [4] | IC50 (Cathepsin G) | IC50 (Glycine receptor)

O=C(O)CCNC(=O)c1ccccc1 [BETAMIPRON]
Not Active: IC50 [1] | IC50 (Thromboxane-A synthase) | IC50 [2] | IC50 [3] | IC50 [4] | IC50 (Cathepsin G) | IC50 (Glycine receptor)

O=c1cnn([C@@H]2O[C@H](CO)[C@@H](O)[C@H]2O)c(=O)[nH]1 [6-AZAURIDINE]
Not Active: IC50 [1] | IC50 (Thromboxane-A synthase) | IC50 [2] | IC50 [3] | IC50 [4] | IC50 (Cathepsin G) | IC50 (Glycine receptor)

Cc1c(OCC(F)(F)F)ccnc1C[S+]([O-])c1nc2ccccc2[nH]1 (stereo not given) [LANSOPRAZOLE]
Not Active: IC50 [1] | IC50 (Thromboxane-A synthase) | IC50 [2] | IC50 [3] | IC50 [4] | IC50 (Cathepsin G) | IC50 (Glycine receptor)

C[C@@H]1C[C@H]2[C@@H]3CCC4=CC(=O)C=C[C@]4(C)[C@@]3(F)[C@@H](O)C[C@]2(C)[C@H]1C(=O)CO [DESOXIMETASONE]
Not Active: IC50 [1] | IC50 (Thromboxane-A synthase) | IC50 [2] | IC50 [3] | IC50 [4] | IC50 (Cathepsin G) | IC50 (Glycine receptor)

O=C(c1ccccc1C(F)(F)F)N1CCC(Cc2ccccc2)CC1
Not Active: IC50 [1] | IC50 (Thromboxane-A synthase) | IC50 [2] | IC50 [3] | IC50 [4] | IC50 (Cathepsin G) | IC50 (Glycine receptor)

O=c1cc(N2CCOCC2)oc2c(-c3ccccc3)cccc12 [LY-294002]
Not Active: IC50 [1] | IC50 (Thromboxane-A synthase) | IC50 [2] | IC50 [3] | IC50 [4] | IC50 (Cathepsin G) | IC50 (Glycine receptor)

COc1cc(N)c(Cl)cc1C(=O)NC1CCN(CCCOc2ccc(F)cc2)CC1OC (stereo not given) [CISAPRIDE]
Not Active: IC50 [1] | IC50 (Thromboxane-A synthase) | IC50 [2] | IC50 [3] | IC50 [4] | IC50 (Cathepsin G) | IC50 (Glycine receptor)

O=C(O)c1cccnc1Nc1cccc(C(F)(F)F)c1 [NIFLUMIC ACID]
Not Active: IC50 (Thromboxane-A synthase) | IC50 [2] | IC50 [3] | IC50 [4] | IC50 (Cathepsin G) | IC50 (Glycine receptor)
